Target: T1, AXOR109 (Homo sapiens, UniProt Q8TDU6)
T1 construct: expressed in transfected cells; host or cells: melanophore cells, transfected by electroporation
T1 sequence (Q8TDU6 1-330): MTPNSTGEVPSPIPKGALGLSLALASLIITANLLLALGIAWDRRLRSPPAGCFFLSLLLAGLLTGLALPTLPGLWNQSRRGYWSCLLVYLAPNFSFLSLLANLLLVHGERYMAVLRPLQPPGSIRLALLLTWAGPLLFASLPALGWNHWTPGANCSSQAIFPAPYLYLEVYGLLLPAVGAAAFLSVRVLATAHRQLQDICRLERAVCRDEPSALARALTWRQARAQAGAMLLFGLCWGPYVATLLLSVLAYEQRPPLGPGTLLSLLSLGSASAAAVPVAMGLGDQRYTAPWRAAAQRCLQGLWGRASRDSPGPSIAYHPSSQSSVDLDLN
Assay: Human AXOR109/Melanophore Assay
Type: cell-based
Details: melanophore assay; for Emax: 1 h; for EC50: AXOR109 transfected melanophores
Method: AXOR109 is a Gs-coupled receptor and therefore increases intracellular cAMP leading to melanosome dispersion. Compounds of the present invention were characterized in a melanophore assay as described in Jayawickreme C K, et al., Current Protocols in Pharmacology (2005) 12.9.1-12.9.16. Briefly, melanophore cells are transfected by electroporation with AXOR109 expressing cDNA. Cells are then plated in 384 well clear bottom plates at 8E3 cells per well in 50 μl of conditioned fibroblast media (CFM). Compounds to be tested are serially diluted 3-fold in DMSO and further diluted 1:100 with melanophore assay buffer (MAB)+10 nM Melatonin to yield 11 point concentration response curves. Following 2 hour incubation with MAB+1% DMSO+10 nM Melatonin, initial transmittance is read on a TwisterII/Spectramax plate reader. Compounds are then added to the cells and incubated for 1 hour, and final transmittance is read as before. Results are compared to vehicle (MAB+1% DMSO+10 nM Melatonin) and to a positive control (MAB+1% DMSO+10 nM Melatonin+200 nM alpha-MSH). Data are calculated for each well as follows: 1-(Transmitance-final/Transmitance-initial). Each well result is then normalized to alpha-MSH, the system max control for Gs/Gq coupled receptors using the following equation: (ObjX−Control1)/(Control2−Control1)*100. The percent system max is used to generate the pEC50 using the equation: y=((Vmax*x̂n)/(K̂n+x̂n))+Y2. Acceptable Z-prime values should be >0.4. Compounds of the present invention have a pEC50≧5.0 in the above described assay.

[1] = normalized to alpha-MSH system max

SMILES | Emax [1] [%] | EC50 [nM] | % Max [1]
COc1ccc(S(=O)(=O)N2CCN(S(=O)(=O)c3ccc(OC)c(OC)c3)CC2)cc1F [Example 1, 1-{[3,4-bis(methyloxy)phenyl]sulfonyl}-4-{[3-fluoro-4-(methyloxy)phenyl]sulfonyl}piperazine] | – | 126 to 1000 | –
COc1ccc(S(=O)(=O)N2CCN(S(=O)(=O)c3ccc(-c4cnco4)cc3)CC2)cc1OC [Example 2, 1-{[3,4-bis(methyloxy)phenyl]sulfonyl}-4-{[4-(1,3-oxazol-5-yl)phenyl]sulfonyl}piperazine] | 51 to 75 | 126 to 1000 | –
COc1ccc(S(=O)(=O)N2CCN(S(=O)(=O)c3ccc(C)cc3OC)CC2)cc1OC [Example 3, 1-{[3,4-bis(methyloxy)phenyl]sulfonyl}-4-{[4-methyl-2-(methyloxy)phenyl]sulfonyl}piperazine] | 51 to 75 | 1260 to 10000 | –
COc1ccc(S(=O)(=O)N2CCN(S(=O)(=O)c3ccc(OC)c(OC)c3)CC2)cc1OC [Example 4, 1,4-bis{[3,4-bis(methyloxy)phenyl]sulfonyl}piperazine] | 51 to 75 | 1260 to 10000 | –
COc1ccc(S(=O)(=O)N2CCN(S(=O)(=O)c3c(C)cccc3Cl)CC2)cc1OC [Example 5, 1-{[3,4-bis(methyloxy)phenyl]sulfonyl}-4-[(2-chloro-6-methylphenyl)sulfonyl]piperazine] | 76 to 100 | 1260 to 10000 | –
COc1ccc(S(=O)(=O)N2CCN(S(=O)(=O)c3ccc(OC)c(OC)c3)CC2)cc1 [Example 6, 1-{[3,4-bis(methyloxy)phenyl]sulfonyl}-4-{[4-(methyloxy)phenyl]sulfonyl}piperazine] | 0 to 50 | 126 to 1000 | –
COc1ccc(S(=O)(=O)N2CCCN(S(=O)(=O)c3ccc(OC)c(OC)c3)CC2)cc1F [Example 7, 1-{[3,4-bis(methyloxy)phenyl]sulfonyl}-4-{[3-fluoro-4-(methyloxy)phenyl]sulfonyl}hexahydro-1H-1,4-diazepine] | 0 to 50 | 1260 to 10000 | –
COc1ccc(S(=O)(=O)N2CCC(NS(=O)(=O)c3cccc4cccnc34)C2)cc1OC (centres unmarked) [Example 16, N-(1-{[3,4-bis(methyloxy)phenyl]sulfonyl}-3-pyrrolidinyl)-8-quinolinesulfonamide] | – | 1260 to 10000 | –
COc1ccc(S(=O)(=O)N2C[C@@H](C)N(S(=O)(=O)c3ccc(OC)c(OC)c3)[C@H](C)C2)cc1OC [Example 17, (2R,6R)-1,4-bis{[3,4-bis(methyloxy)phenyl]sulfonyl}-2,6-dimethylpiperazine] | 0 to 50 | 126 to 1000 | –
COc1ccc(S(=O)(=O)N2CC(C)N(S(=O)(=O)c3ccc(OC)c(OC)c3)CC2C)cc1OC (centres unmarked) [Example 18, 1,4-bis{[3,4-bis(methyloxy)phenyl]sulfonyl}-2,5-dimethylpiperazine] | 51 to 75 | < 126 | –
COc1ccc(S(=O)(=O)N2CCN(S(=O)(=O)c3ccc(OC)c(OC)c3)[C@@H](C)C2)cc1OC [Example 19, (2S)-1,4-bis{[3,4-bis(methyloxy)phenyl]sulfonyl}-2-methylpiperazine] | 76 to 100 | 1260 to 10000 | –
COc1ccc(S(=O)(=O)N2C[C@@H](C)N(S(=O)(=O)c3ccc(OC)c(OC)c3)[C@@H](C)C2)cc1OC [Example 20, 1,4-bis{[3,4-bis(methyloxy)phenyl]sulfonyl}-2,6-cis-dimethylpiperazine] | – | 1260 to 10000 | ** (“**” = 51% to 75%)
COc1ccc(S(=O)(=O)N2C[C@H](C)N(S(=O)(=O)c3ccc(OC)c(OC)c3)[C@@H](C)C2)cc1OC [Example 21, (2S,6S)-1,4-bis{[3,4-bis(methyloxy)phenyl]sulfonyl}-2,6-dimethylpiperazine] | 51 to 75 | 126 to 1000 | –
COc1ccc(S(=O)(=O)N2C[C@H](C)N(S(=O)(=O)c3ccc(OC)c(OC)c3)C[C@H]2C)cc1OC [Example 22, trans-1,4-bis{[3,4-bis(methyloxy)phenyl]sulfonyl}-2,5-dimethylpiperazine] | 51 to 75 | 1260 to 10000 | –
COc1ccc(S(=O)(=O)N2CCN(S(=O)(=O)c3ccc(OC)c(OC)c3)C(C3CCCCC3)C2)cc1OC (centres unmarked) [Example 24, 1,4-bis{[3,4-bis(methyloxy)phenyl]sulfonyl}-2-cyclohexylpiperazine] | 51 to 75 | 1260 to 10000 | –
COc1ccc(S(=O)(=O)NC2CCCCN(S(=O)(=O)c3ccc(OC)c(OC)c3)C2)cc1OC (centres unmarked) [Example 25, N-(1-{[3,4-bis(methyloxy)phenyl]sulfonyl}hexahydro-1H-azepin-3-yl)-3,4-bis(methyloxy)benzenesulfonamide] | 0 to 50 | 1260 to 10000 | –
COc1ccc(S(=O)(=O)N2CCN(S(=O)(=O)c3ccc(OC)c(OC)c3)C(=O)C2=O)cc1OC [Example 27, 1,4-bis{[3,4-bis(methyloxy)phenyl]sulfonyl}-2,3-piperazinedione] | 51 to 75 | 1260 to 10000 | –

Other lines, results leading:

Emax [1] [%] | EC50 [nM] | % Max [1] | SMILES
51 to 75 | 1260 to 10000 | – | COc1ccc(S(=O)(=O)N2CC[C@H](N(C)S(=O)(=O)c3ccc(OC)c(OC)c3)C2)cc1OC (stereo in doubt) [Example 84]
51 to 75 | 1260 to 10000 | – | COc1ccc(S(=O)(=O)N2CCCN(S(=O)(=O)c3ccc4c(c3)OCCO4)CC2)cc1OC [Example 8, 1-{[3,4-bis(methyloxy)phenyl]sulfonyl}-4-(2,3-dihydro-1,4-benzodioxin-6-ylsulfonyl)hexahydro-1H-1,4-diazepine]
76 to 100 | 126 to 1000 | – | COc1cccc(S(=O)(=O)N(C)CCN(C)S(=O)(=O)c2ccc(OC)c(OC)c2)c1 [Example 10, N-methyl-N-[2-(methyl{[3-(methyloxy)phenyl]sulfonyl}amino)ethyl]-3,4-bis(methyloxy)benzenesulfonamide]
0 to 50 | 126 to 1000 | – | COc1ccc(S(=O)(=O)N(C)CCN(C)S(=O)(=O)c2ccc(OC)c(OC)c2)cc1F [Example 11, N-{2-[{[3,4-bis(methyloxy)phenyl]sulfonyl}(methyl)amino]ethyl}-3-fluoro-N-methyl-4-(methyloxy)benzenesulfonamide]
76 to 100 | 1260 to 10000 | – | COc1ccc(S(=O)(=O)N(C)CCN(C)S(=O)(=O)c2ccc3c(c2)OCCN3C)cc1OC [Example 12, N-methyl-N-{2-[{[3,4-bis(methyloxy)phenyl]sulfonyl}(methyl)amino]ethyl}-4-methyl-3,4-dihydro-2H-1,4-benzoxazine-7-sulfonamide]
51 to 75 | 1260 to 10000 | – | COc1ccc(S(=O)(=O)N(C)CCN(C)S(=O)(=O)c2ccc3c(c2)OCCO3)cc1OC [Example 13, N-{2-[{[3,4-bis(methyloxy)phenyl]sulfonyl}(methyl)amino]ethyl}-N-methyl-2,3-dihydro-1,4-benzodioxin-6-sulfonamide]
76 to 100 | 126 to 1000 | – | COc1ccc(S(=O)(=O)N(C)CCN(C)S(=O)(=O)c2ccc(OC)c(OC)c2)cc1 [Example 15, N-methyl-N-[2-(methyl{[4-(methyloxy)phenyl]sulfonyl}amino)ethyl]-3,4-bis(methyloxy)benzenesulfonamide]
0 to 50 | 1260 to 10000 | – | COc1ccc(S(=O)(=O)N2CCN(S(=O)(=O)c3ccc(OC)c(OC)c3)C2=O)cc1OC [Example 23, 1,3-bis{[3,4-bis(methyloxy)phenyl]sulfonyl}-2-imidazolidinone]
76 to 100 | 1260 to 10000 | – | COc1ccc(S(=O)(=O)NCCNS(=O)(=O)c2ccc(OC)c(OC)c2)cc1OC [Example 26, N,N′-1,2-ethanediylbis[3,4-bis(methyloxy)benzenesulfonamide]]

— US20090069302A1 (SMITHKLINE BEECHAM CORPORATION, priority 2006, published 2009)
